Data reported in ChEMBL document CHEMBL6109128, “Copper-KRAS-COX2 Axis: A Therapeutic Vulnerability in Pancreatic Cancer” (J Med Chem, 2025).
The source made the active and inactive calls. The rule behind the calls is not given here.

How the values were obtained:
HCT-116 [1] = test: Induction of ferroptosis in human HCT-116 cells assessed as cell death at up to 1 uM in presence of […]; type: functional, cell-based
MIA PaCa-2 [2] = test: Synergistic antiproliferative activity against human MIA PaCa-2 cells assessed as inhibition of colony formation at up to 0.5 uM in presence of TTM; type: functional, cell-based
Panc02 [3] = test: Synergistic antiproliferative activity against mouse Panc02 cells assessed as inhibition of colony formation at up to 1 uM incubated for 6 days in presence of celecoxib; type: functional, cell-based; conditions: time 6.0 day
Panc02 [4] = test: Synergistic antiproliferative activity against mouse Panc02 cells harboring wild type KRAS at 0.01 to 3 uM in presence of MRTX1133; type: functional, cell-based; conditions: dose 0.01-3 µM
HCT-116 [5] = test: Synergistic antiproliferative activity against human HCT-116 cells assessed as inhibition of colony formation at up to 1 uM incubated for 6 days in presence of JQ-1; type: functional, cell-based; conditions: time 6.0 day
KPC2 [6] = test: Synergistic antiproliferative activity against mouse KPC2 cells assessed as inhibition of colony formation at up to 1 uM incubated for 6 days in presence of celecoxib; type: functional, cell-based; conditions: time 6.0 day
HCT-116 [7] = test: Induction of apoptosis in human HCT-116 cells assessed as increase in clonogenic survival up to 1 uM incubated for 6 days in presence of Z-VAD-FMK by crystal violet staining based analysis; type: functional, cell-based; conditions: time 6.0 day
HCT-116 [8] = test: Induction of necroptosis in human HCT-116 cells assessed as increase in p-RIP3 level at 10 uM incubated for 1 hr by Western blot analysis; type: functional, cell-based
Panc02 [9] = test: Cytotoxicity against mouse Panc02 cells by MTT assay; type: functional, cell-based
[10] = Half life in CD-1 mouse at 15 mg/kg, iv measured up to 24 hrs by LC-MS/MS analysis; type: ADME, organism-based; conditions: in vivo
MIA PaCa-2 [11] = test: Cytotoxicity against human MIA PaCa-2 cells assessed as cell death up to 1 uM incubated for 6 days in presence of NAC; type: functional, cell-based; conditions: time 6.0 day
[12] = Half life in CD-1 mouse at 30 mg/kg, po measured up to 24 hrs by LC-MS/MS analysis; type: ADME, organism-based; conditions: in vivo
MIA PaCa-2 [13] = test: Induction of necroptosis in human MIA PaCa-2 cells assessed as increase in p-RIP3 level at 10 uM incubated for 1 hr by Western blot analysis; type: functional, cell-based
HCT-116 [14] = test: Induction of apoptosis in human HCT-116 cells assessed as upregulation of cleaved PARP level at 1 uM measured for 24 hrs in presence of CuSO4 by Western blot analysis; type: functional, cell-based
MIA PaCa-2 [15] = test: Induction of apoptosis in human MIA PaCa-2 cells assessed as upregulation of caspase 3 level at 10 uM measured for 48 hrs by Western blot analysis; type: functional, cell-based
MIA PaCa-2 [16] = test: Induction of apoptosis in human MIA PaCa-2 cells assessed as increase in clonogenic survival up to 0.5 uM incubated for 6 days in presence of Z-VAD-FMK by crystal violet staining based analysis; type: functional, cell-based; conditions: time 6.0 day
[17] = AUC in CD-1 mouse at 15 mg/kg, iv measured up to 24 hrs by LC-MS/MS analysis; type: ADME, organism-based; conditions: in vivo
HCT-116 [18] = test: Synergistic antiproliferative activity against human HCT-116 cells assessed as inhibition of colony formation at up to 1 uM incubated for 6 days in presence of lumi-racoxib; type: functional, cell-based; conditions: time 6.0 day
KPC2 [19] = test: Synergistic antiproliferative activity against mouse KPC2 cells at 0.01 to 3 uM in presence of MRTX1133; type: functional, cell-based; conditions: dose 0.01-3 µM
MIA PaCa-2 [20] = test: Synergistic antiproliferative activity against human MIA PaCa-2 cells assessed as inhibition of colony formation at up to 1 uM incubated for 6 days in presence of valdecoxib; type: functional, cell-based; conditions: time 6.0 day
MIA PaCa-2 [21] = test: Antiproliferative activity against human MIA PaCa-2 cells harboring KRAS; type: functional, cell-based
BXPC-3 [22] = test: Cytotoxicity against human BXPC-3 cells by MTT assay; type: functional, cell-based
MIA PaCa-2 [23] = test: Synergistic antiproliferative activity against human MIA PaCa-2 cells assessed as inhibition of colony formation at up to 1 uM in presence of FeCl3; type: functional, cell-based
HCT-116 [24] = test: Induction of autophagy in human HCT-116 cells assessed as cell death at up to 1 uM incubated for 6 days in presence of chloroquine; type: functional, cell-based; conditions: time 6.0 day
HCT-116 [25] = test: Cytotoxicity against human HCT-116 cells assessed as cell death up to 1 uM incubated for 6 days in presence of NAC; type: functional, cell-based; conditions: time 6.0 day
BXPC-3 [26] = test: Cytotoxicity against human BXPC-3 cells harboring wild type KRAS; type: functional, cell-based
[27] = AUC (0 to infinity) in CD-1 mouse at 15 mg/kg, iv measured up to 24 hrs by LC-MS/MS analysis; type: ADME, organism-based; conditions: in vivo
MIA PaCa-2 [28] = test: Induction of ferroptosis in human MIA PaCa-2 cells assessed as cell death at up to 1 uM in presence of ferrostatin-1; type: functional, cell-based
PANC-1 = test: Cytotoxicity against human PANC-1 cells by MTT assay; type: functional, cell-based
BXPC-3 [29] = test: Synergistic antiproliferative activity against human BXPC-3 cells assessed as inhibition of colony formation at up to 1 uM incubated for 6 days in presence of celecoxib; type: functional, cell-based; conditions: time 6.0 day
MIA PaCa-2 [30] = test: Induction of ferroptosis in human MIA PaCa-2 cells assessed as cell death at up to 1 uM in presence of […]; type: functional, cell-based
MIA PaCa-2 [31] = test: Synergistic antiproliferative activity against human MIA PaCa-2 cells assessed as inhibition of colony formation at up to 1 uM incubated for 6 days in presence of MK-663; type: functional, cell-based; conditions: time 6.0 day
HCT-116 [32] = test: Synergistic antiproliferative activity against human HCT-116 cells assessed as inhibition of colony formation at up to 1 uM incubated for 6 days in presence of napabucasin; type: functional, cell-based; conditions: time 6.0 day
MIA PaCa-2 [33] = test: Cytotoxicity against human MIA PaCa-2 cells by MTT assay; type: functional, cell-based
HCT-116 [34] = test: Synergistic antiproliferative activity against human HCT-116 cells assessed as inhibition of colony formation at up to 1 uM incubated for 6 days in presence of celecoxib; type: functional, cell-based; conditions: time 6.0 day
HCT-116 [35] = test: Synergistic antiproliferative activity against human HCT-116 cells assessed as inhibition of colony formation at up to 10 uM in presence of TTM; type: functional, cell-based
HCT-116 [36] = test: Synergistic antiproliferative activity against human HCT-116 cells assessed as inhibition of colony formation at up to 1 uM incubated for 6 days in presence of valdecoxib; type: functional, cell-based; conditions: time 6.0 day
MIA PaCa-2 [37] = test: Induction of apoptosis in human MIA PaCa-2 cells assessed as increase in clonogenic survival up to 0.5 uM incubated for 6 days in presence of necrostatin-1 by crystal violet staining based analysis; type: functional, cell-based; conditions: time 6.0 day
[38] = Cmax in CD-1 mouse at 15 mg/kg, iv measured up to 24 hrs by LC-MS/MS analysis; type: ADME, organism-based; conditions: in vivo
BXPC-3 [39] = test: Synergistic antiproliferative activity against human BXPC-3 cells assessed as inhibition of colony formation at up to 1 uM incubated for 6 days in presence of valdecoxib; type: functional, cell-based; conditions: time 6.0 day
[40] = Toxicity in C57BL/6 mouse assessed as body weight loss at 20 to 40 mg/kg, ip administered for 28 days; type: organism-based; conditions: in vivo, 672 h, dose 20-40 mg/kg, time 28 day
MIA PaCa-2 [41] = test: Synergistic antiproliferative activity against human MIA PaCa-2 cells assessed as inhibition of colony formation at up to 1 uM incubated for 6 days in presence of celecoxib; type: functional, cell-based; conditions: time 6.0 day

N[C@@H]1[C@H]2CN(c3cnc(C(=O)Nc4cc(F)cc5cccnc45)cn3)C[C@@H]12
Activity (HCT-116 [1]): inactive
Activity (MIA PaCa-2 [2]): Active
Activity (Panc02 [3]): Active
Activity (Panc02 [4]): inactive
Activity (HCT-116 [5]): Active
Activity (KPC2 [6]): Active
Activity (HCT-116 [7]): Active
Activity (HCT-116 [8]): Active
IC50 (Panc02 [9]): 8000 nM
half-life [10]: 3 h
Activity (MIA PaCa-2 [11]): Active
half-life [12]: 3.1 h
Activity (MIA PaCa-2 [13]): Active
Activity (HCT-116 [14]): Active
Activity (MIA PaCa-2 [15]): Active
Activity (MIA PaCa-2 [16]): Active
AUC at 24 h [17]: 3420 ng·h/mL
Activity (HCT-116 [18]): Active
Activity (KPC2 [19]): Active
Activity (MIA PaCa-2 [20]): Active
Activity (MIA PaCa-2 [21]): Active
IC50 (BXPC-3 [22]): > 10000 nM
Activity (MIA PaCa-2 [23]): Active
Activity (HCT-116 [24]): Active
Activity (HCT-116 [25]): Active
Activity (BXPC-3 [26]): inactive
AUC(0-inf) [27]: 3450 ng·h/mL
Activity (MIA PaCa-2 [28]): inactive
IC50 (PANC-1): 4400 nM
Activity (BXPC-3 [29]): Active
Activity (MIA PaCa-2 [30]): inactive
Activity (MIA PaCa-2 [31]): Active
Activity (HCT-116 [32]): Active
IC50 (MIA PaCa-2 [33]): 600 nM
Activity (HCT-116 [34]): Active
Activity (HCT-116 [35]): Active
Activity (HCT-116 [36]): Active
Activity (MIA PaCa-2 [37]): Active
Cmax [38]: 1620 ng/mL
Activity (BXPC-3 [39]): Active
Activity [40]: Non-toxic
Activity (MIA PaCa-2 [41]): Active

C[C@@H]1OCC2(CCN(c3cnc(C(=O)Nc4cc(F)cc5cccnc45)cn3)CC2)[C@@H]1N
Activity (HCT-116 [1]): inactive
Activity (MIA PaCa-2 [2]): Active
Activity (Panc02 [3]): Active
Activity (Panc02 [4]): inactive
Activity (HCT-116 [5]): Active
Activity (KPC2 [6]): Active
Activity (HCT-116 [7]): Active
Activity (HCT-116 [8]): Active
IC50 (Panc02 [9]): 2100 nM
half-life [10]: 2.8 h
Activity (MIA PaCa-2 [11]): Active
half-life [12]: 4.9 h
Activity (MIA PaCa-2 [13]): Active
Activity (HCT-116 [14]): Active
Activity (MIA PaCa-2 [15]): Active
Activity (MIA PaCa-2 [16]): Active
AUC at 24 h [17]: 6010 ng·h/mL
Activity (HCT-116 [18]): Active
Activity (KPC2 [19]): Active
Activity (MIA PaCa-2 [20]): Active
Activity (MIA PaCa-2 [21]): Active
IC50 (BXPC-3 [22]): 8500 nM
Activity (MIA PaCa-2 [23]): Active
Activity (HCT-116 [24]): Active
Activity (HCT-116 [25]): Active
Activity (BXPC-3 [26]): inactive
AUC(0-inf) [27]: 6090 ng·h/mL
Activity (MIA PaCa-2 [28]): inactive
IC50 (PANC-1): 2900 nM
Activity (BXPC-3 [29]): Active
Activity (MIA PaCa-2 [30]): inactive
Activity (MIA PaCa-2 [31]): Active
Activity (HCT-116 [32]): Active
IC50 (MIA PaCa-2 [33]): 1900 nM
Activity (HCT-116 [34]): Active
Activity (HCT-116 [35]): Active
Activity (HCT-116 [36]): Active
Activity (MIA PaCa-2 [37]): Active
Cmax [38]: 3460 ng/mL
Activity (BXPC-3 [39]): Active
Activity [40]: Non-toxic
Activity (MIA PaCa-2 [41]): Active
